Assay [1] has as its system Phytophthora infestans. The format is in vivo. Conditions: alone, untreated control 86 % infection.
Assay [2] relates to Phakopsora pachyrhizi. The assay can be described thus: Use Example G3: curative activity against soybean rust (Phakpa K4). The format is in vivo. Conditions: alone, untreated control 76 % infection. On the procedure:
(§1) The active compounds were prepared separately or jointly as a stock solution with 25 mg of active compound which was made up to 10 ml using a mixture of acetone and/or DMSO and the emulsifier Wettol EM 31 (wetting agent having emulsifying and dispersing action based on ethoxylated alkylphenols) in a volume ratio of solvent:emulsifier of 99:1. The mixture was then made up with water to 100 ml. This stock solution was diluted with the solvent/emulsifier/water mixture described to give the active compound concentration stated below. Alternatively, the active compounds were used as a commercial finished formulation and diluted with water to the stated active compound concentration.
(§2) The visually determined values for the percentage of infected leaf area were initially converted into a mean value and then converted into efficancies in % of the untreated control. An efficacy of 0 means the same degree of infection as in the untreated control, an efficacy of 100 means 0% infection.
Leaves of potted soybean seedlings were inoculated with a spore suspension of soybean rust (Phakpsora pachyrhizi). The pots were then placed in a chamber of high atmospheric humidity (90 to 95%) and 20 to 24° C. for 24 hours. During this time, the spores germinated and the germ tubes penetrated into the leaf tissue. The infected plants were then cultivated further in a greenhouse at temperatures between 23 and 27° C. and 60 to 80% relative atmospheric humidity. After three days, the plants were sprayed to runoff point with the active compound solution described above at the active compound concentration stated below. After the spray coating had dried on, the test plants were cultivated in a greenhouse at temperatures between 23 and 27° C. and 60 to 80% relative atmospheric humidity for a further 10 days. The extent of the rust fungus development on the leaves was then determined visually in % infection.

The next assay relates to Puccinia recondita. The assay is described as follows: Use Example G4: protective activity against brown rust of wheat (Puccrt P1). It is filed as in vivo. Conditions: alone, untreated control 79 % infection. On the procedure: as §1, §2
Leaves of potted wheat seedlings were sprayed to runoff point with an aqueous suspension having the active compound concentration stated below. The next day, the treated plants were inoculated with a spore suspension of brown rust of wheat (Puccinia recondita). The plants were then placed in a chamber of high atmospheric humidity (90 to 95%) at 20 to 24° C. for 24 hours. During this time, the spores germinated and the germ tubes penetrated into the leaf tissue. The next day, the test plants were returned to the greenhouse and cultivated at temperatures between 20 and 24° C. and 65 to 70% relative atmospheric humidity for a further 7 days. The extent of the rust fungus development on the leaves was then determined visually.

For assay [3], the system named is Septoria tritici. The assay is described as follows: Use Example M4: activity against Septoria leaf spot pathogen in the microtiter test (Septtr). The format is cell-based. Conditions: alone.
Assay [4] concerns Septoria tritici. The assay is described as follows: Use Example G5: protective activity against Septoria leaf blotch of wheat (Septtr P1). It is filed as in vivo. Conditions: alone, untreated control 83 % infection. On the procedure:
as §1, §2
(§3) Leaves of potted wheat seedlings were sprayed to runoff point with an aqueous suspension having the active compound concentration stated below. 24 hours after the spray coating had dried on, they were inoculated with an aqueous spore suspension of Septoria tritici. The test plants were then placed in a greenhouse at temperatures between 18 and 22° C. and a relative atmospheric humidity close to 100% for 4 days and then at temperatures between 18 and 22° C. and an atmospheric humidity of about 70%. After 21 days, the extent of the development of the disease was determined visually in % infection of the total leaf area.

Another assay concerns Pyricularia oryzae. It is filed as cell-based. Conditions: alone.
In the next assay the test system is Pyrenophora teres. The assay is described as follows: Use Example M5: activity against Pyrenophora teres in the microtiter test (Pymte). The format is cell-based. Conditions: alone.
Assay [5] relates to Phytophthora infestans. The format is cell-based. Conditions: single active compound.
Assay [6] relates to Botrytis cinerea. The assay can be described thus: Use Example M2: activity against gray mold pathogen in the microtiter test (Botrci). The format is cell-based. Conditions: single active compound.
Assay [7] relates to Septoria tritici. The assay can be described thus: Use Example G6: protective activity against Septoria leaf blotch of wheat (Septtr P1), % infection. The format is in vivo. Conditions: 150 ppm, protective spray, after 21 days, untreated control 60% infected. How it is done: as §1, §3
In assay [8] the test system is Phakopsora pachyrhizi. The assay can be described thus: Use Example G7: curative activity against soybean rust (Phakpa K3), % infection. The format is in vivo. Conditions: 150 ppm, curative spray two days after inoculation, further 10 days, untreated control 80% infected. How it is done: as §1
Leaves of potted soybean seedlings were inoculated with a spore suspension of soybean rust (Phakpsora pachyrhizi). The pots were then placed in a chamber of high atmospheric humidity (90 to 95%) and 20 to 24° C. for 24 hours. During this time, the spores germinated and the germ tubes penetrated into the leaf tissue. The infected plants were then cultivated further in a greenhouse at temperatures between 23 and 27° C. and 60 to 80% relative atmospheric humidity. […] The extent of the rust fungus development on the leaves was then determined visually in % infection.

Assay [9] relates to Septoria tritici. The assay can be described thus: Comparison No. C1: activity against Septoria leaf blotch pathogen in the microtiter test (Septtr). Conditions: relative growth, active compound-free control = 100%.
Procedure: An aqueous malt-based spore suspension of Septoria tritici was then added. The plates were placed in a water vapor-saturated chamber at a temperature of 18° C. Using an absorption photometer, the MTPs were measured at 405 nm on day 7 after the innoculation.
Assay [10] concerns Botrytis cinerea. The assay can be described thus: Use Example G1: gray mold on bell pepper leaves, protective application (Botrci P1). The format is in vivo. Conditions: 1 ppm, alone; untreated control 86 % infection. On the procedure:
as §1, §2
Bell pepper seedlings were after 2-3 leaves were well developed, sprayed to runoff point with an aqueous suspension having the active compound concentration stated below. The next day, the treated plants were inoculated with a spore suspension of Botrytis cinerea in a 2% biomalt solution. […] After 5 days, the extent of the fungal infection on the leaves could be determined visually in %.

SMILES strings stand for the structures. Like-named read-outs stand apart in the source and are kept apart here.

Consider `Fc1ccc([C@]2(Cn3cncn3)O[C@H]2c2ccccc2Cl)cc1` (racemic) [epoxiconazole], for which the Observed effect came to 1% in the assay with Phytophthora infestans [1] (1 ppm); 63% in the assay with Phakopsora pachyrhizi [2] (0.063 ppm); 0% in the assay on Puccinia recondita (0.016 ppm); 6 in the assay with Septoria tritici [3] (0.004 ppm); 22 with Septoria tritici [3] (0.016 ppm); 24% in the assay with Septoria tritici [4] (1 ppm). The Observed effect is 0 in the assay on Pyricularia oryzae (ternary table, 0.016 ppm); 0% with Pyrenophora teres (0.004 ppm); 0% in the assay on Pyrenophora teres (0.016 ppm).

Regarding `Fc1ccc([C@@]2(Cn3nc[nH]c3=S)O[C@H]2c2ccccc2Cl)cc1` (relative stereo) [I-1, trans-2-[3-(2-chlorophenyl)-2-(4-fluorophenyl)oxiranylmethyl]-2,4-dihydro-[1,2,4]triazole-3-thione], the Observed effect in the assay with Phytophthora infestans [1] (1 ppm) was 0%; in the assay on Phakopsora pachyrhizi [2] (0.063 ppm), 17%; in the assay with Puccinia recondita (0.016 ppm), 0%; in the assay on Septoria tritici [4] (1 ppm), 8%; in the assay with Pyricularia oryzae (16 ppm), 3; with Pyrenophora teres (0.004 ppm), 2%. Further, in the assay with Pyrenophora teres (0.016 ppm), the Observed effect worked out at 5%.

Regarding `CC(=O)Sc1ncnn1C[C@]1(c2ccc(F)cc2)O[C@H]1c1ccccc1Cl` (relative stereo) [I-3, trans-S-{2-[3-(2-chlorophenyl)-2-(4-fluorophenyl)oxiranylmethyl]-2H-[1,2,4]triazol-3-yl}thioacetate], the Observed effect stood at 43% with Phytophthora infestans [5] (63 ppm); 15% in the assay on Botrytis cinerea [6] (16 ppm); 3 with Septoria tritici [3] (1 ppm); 8 in the assay on Pyricularia oryzae (16 ppm); 62 with Pyricularia oryzae (63 ppm).

In the case of `N#CSc1ncnn1C[C@]1(c2ccc(F)cc2)O[C@H]1c1ccccc1Cl` (relative stereo) [I-6, trans-1-[3-(2-chlorophenyl)-2-(4-fluorophenyl)oxiranylmethyl]-5-thiocyanato-1H-[1,2,4]triazole], the “infection (% infection of the total leaf area)” value in the assay with Septoria tritici [7] was 0%. In addition, the “infection (rust fungus development on the leaves, % infection)” value in the assay on Phakopsora pachyrhizi [8] worked out at 0%.

In turn, `Fc1ccc([C@@]2(Cn3ncnc3S)O[C@H]2c2ccccc2F)cc1` (relative stereo) [I-8, trans-2-[2-(4-fluorophenyl)-3-(2-fluorophenyl)oxiranylmethyl]-2H-[1,2,4]triazole-3-thiole] returned an Observed effect in the assay on Botrytis cinerea [6] (63 ppm) of 24%.

Take `[Na+].[S-]c1ncnn1C[C@]1(c2ccccc2Cl)O[C@H]1c1ccccc1Cl` (relative stereo) [I-10, sodium 2-[trans-2,3-bis-(2-chlorophenyl)oxiranylmethyl]-2H-[1,2,4]triazole-3-thiolate]: the Observed effect is given as 30% in the assay on Phytophthora infestans [5] (16 ppm) and 35 in the assay with Pyricularia oryzae (16 ppm).

Consider `S=c1[nH]cnn1C[C@]1(c2ccccc2)O[C@H]1c1ccccc1Cl` (relative stereo) [I-12, 2-[trans-3-(2-chlorophenyl)-2-phenyloxiranylmethyl]-2,4-dihydro-[1,2,4]triazole-3-thione], for which the Observed effect with Pyricularia oryzae (16 ppm) was 7; with Pyricularia oryzae (63 ppm) it was 16.

With `Fc1ccccc1[C@@]1(Cn2nc[nH]c2=S)O[C@H]1c1ccccc1Cl` (relative stereo) [I-14, 2-[trans-3-(2-chlorophenyl)-2-(2-fluorophenyl)oxiranylmethyl]-2,4-dihydro-[1,2,4]triazole-3-thione], the Observed effect was found to be 26% with Phytophthora infestans [5] (16 ppm), 0 with Septoria tritici [3] (1 ppm) and 18 with Pyricularia oryzae (16 ppm).

Consider `CCSc1ncnn1C[C@]1(c2ccc(F)cc2)O[C@H]1c1ccccc1Cl` (relative stereo) [I-18, trans-1-[3-(2-chlorophenyl)-2-(4-fluorophenyl)oxiranylmethyl]-5-ethylsulfanyl-1H-[1,2,4]triazole], for which the “Growth in % at 8 ppm for Septtr” value in the assay with Septoria tritici [9] came out at 39%.

As for `CSc1ncnn1CC1(c2ccc(F)cc2)OC1c1ccccc1Cl` (stereo not shown) [Prior art (WO 96/38440)], the “Growth in % at 8 ppm for Septtr” value in the assay on Septoria tritici [9] is 65%.

Take `O=C(Nc1ccccc1-c1ccc(Cl)cc1)c1cccnc1Cl` [boscalid]: the Observed effect in the assay with Phytophthora infestans [5] (4 ppm) is listed as 4%; with Phytophthora infestans [5] (16 ppm) it was 20%; in the assay with Puccinia recondita (0.063 ppm), 0%; with Septoria tritici [3] (ternary table, 0.063 ppm) it was 10; in the assay with Septoria tritici [4] (4 ppm) it was 10%; in the assay on Pyricularia oryzae (16 ppm), 8. Moreover, the Observed effect with Pyricularia oryzae (ternary table, 4 ppm) is given as 0.

Regarding `COC(=O)Nc1nc2ccccc2[nH]1` [carbendazim], the Observed effect in the assay with Pyrenophora teres (0.004 ppm) is given as 0%.

Regarding `N#Cc1c(Cl)c(Cl)c(Cl)c(C#N)c1Cl` [chlorothalonil], the Observed effect in the assay with Septoria tritici [3] (0.063 ppm) amounted to 3; with Septoria tritici [3] (ternary table, 0.063 ppm), 3; in the assay on Pyricularia oryzae (ternary table, 0.063 ppm), 4.

For the compound `CNC(=O)/C(=N/OC)c1ccccc1COc1cc(C)ccc1C` [dimoxystrobin], the Observed effect in the assay with Pyrenophora teres (0.004 ppm) is 4%.

`CO/N=C(/C(=O)OC)c1ccccc1COc1ccccc1C` [kresoxim-methyl]: the Observed effect in the assay with Phakopsora pachyrhizi [2] (1 ppm) was found to be 39%.

For `CNC(=O)/C(=N/OC)c1ccccc1CO/N=C(C)/C(=N/OC)C(/C)=N/OC` [orysastrobin], the Observed effect in the assay on Botrytis cinerea [6] (0.016 ppm) worked out at 1%; in the assay on Botrytis cinerea [6] (1 ppm), 2%; in the assay on Septoria tritici [3] (ternary table, 0.004 ppm), 2; in the assay with Pyricularia oryzae (ternary table, 0.016 ppm), 2.

For `COC(=O)N(OC)c1ccccc1COc1ccn(-c2ccc(Cl)cc2)n1` [pyraclostrobin], the Observed effect in the assay with Phytophthora infestans [5] (16 ppm) is on record as 16%; with Botrytis cinerea [10] it was 1%.

In the assay with Pyricularia oryzae (4 ppm), `Cc1cc(C)nc(Nc2ccccc2)n1` [pyrimethanil] came in with an Observed effect of 47.

Take `COC(=O)NC(=S)Nc1ccccc1NC(=S)NC(=O)OC` [thiophanate-methyl]: the Observed effect in the assay with Phytophthora infestans [1] (63 ppm) stood at 0%; with Phakopsora pachyrhizi [2] (4 ppm) it was 8%.

The values above are taken from patent publication US20120088662A1, “FUNGICIDAL MIXTURES” (BASF SE, priority 2009, published 2012).
